Our source for the IC50 and Activity values is ChEMBL document CHEMBL4673271, “Denigrins and Dactylpyrroles, Arylpyrrole Alkaloids from a Dactylia sp. Marine Sponge” (J Nat Prod, 2020).

Starred links: 1 amine or outer side, 2 acyl side, 3 side chain; linkers in the order of their positions; H or OH if unused. Positions of bridges follow the written chain, without caps; N, C: chain ends. Non-standard residues stand in square brackets, D forms with d. Residues, ends and D or L forms follow the SMILES beside them. Chains are numbered I, II in the order given. Actinocin(1to9) = Cc1c2oc3c(C)ccc(C(=O)[*:2])c3nc-2c(C(=O)[*:1])c(N)c1=O; NMeV = CN[C@H](C(=O)O)C(C)C; Sar = CNCC(=O)O

A word on the IC50: it is the point on the concentration scale where inhibition reaches its midpoint. Low readings indicate greater potency in that assay, high ones weaker potency in that assay.

Common to all, as to assay type: cell-based
Data set [1] can be described thus: Inhibition of PAX3-FOXO1 (unknown origin) stably transfected Rh4 cells co-expressing ALK-Luc after 24 hrs by SteadyLite luciferase assay. The note with it: Homo sapiens, Rh4, 24 h.
Data set [2] is described as follows: Inhibition of PAX3-FOXO1 (unknown origin) stably transfected Rh4 cells co-expressing CMV-Luc after 24 hrs by SteadyLite luciferase assay. The conditions noted are these: Homo sapiens, Rh4, 24 h.
Data set [3] can be described thus: Cytotoxicity against human Rh4 cells assessed as reduction in cell viability >=20 uM.

Regarding `O=C1C(c2ccc(O)cc2)=C2C(=C(c3ccc(O)cc3)C(=O)N2CCc2ccc(O)cc2)c2c1[nH]c1c(O)cccc21`, the IC50 in data set [1] and in data set [2] was 13 µM throughout. In data set [3], the Activity entry is given as “Toxic”.
With `Cc1c2oc3c(C)ccc(C(=O)N[C@@H]4C(=O)N[C@H](C(C)C)C(=O)N5CCC[C@H]5C(=O)N(C)CC(=O)N(C)[C@@H](C(C)C)C(=O)O[C@@H]4C)c3nc-2c(C(=O)N[C@@H]2C(=O)N[C@H](C(C)C)C(=O)N3CCC[C@H]3C(=O)N(C)CC(=O)N(C)[C@@H](C(C)C)C(=O)O[C@@H]2C)c(N)c1=O` [DACTINOMYCIN] (I: T[dV]P[Sar][NMeV] / II: T[dV]P[Sar][NMeV]; ester I:1-I:C, II:1-II:C; linker I:N-II:N via Actinocin(1to9)), the IC50 in data set [1] and in data set [2] was 0.001 µM each time.
